{
  "source": "ChEMBL document CHEMBL1759932",
  "about": "“Design, synthesis and structure-activity relationships of (indo-3-yl) heterocyclic derivatives as agonists of the CB1 receptor. Discovery of a clinical candidate” (Bioorg Med Chem Lett, 2011)",
  "key": {"[1]": {"experiment": "Half life in ICR mouse", "type": "ADME, organism-based", "details": "in vivo"}, "[2]": {"experiment": "Volume of distribution at steady state in ICR mouse", "type": "ADME, organism-based", "details": "in vivo, read-out: Vdss"}, "[3]": {"experiment": "Clearance in ICR mouse", "type": "ADME, organism-based", "details": "in vivo"}, "[4]": {"experiment": "Ratio of Cmax in brain to plasma in ICR mouse", "type": "ADME", "details": "brain and plasma"}, "[5]": {"experiment": "Intrinsic clearance in rat liver microsomes", "type": "ADME, Microsome"}, "[6]": {"experiment": "Intrinsic clearance in human liver microsomes", "type": "ADME, Microsome"}, "[7]": {"experiment": "Clearance in Wistar rat", "type": "ADME, organism-based", "details": "in vivo"}, "[8]": {"experiment": "Intrinsic clearance in mouse hepatic microsomes", "type": "ADME, Microsome", "details": "liver microsomes"}, "[9]": {"experiment": "Volume of distribution at steady state in Wistar rat", "type": "ADME, organism-based", "details": "in vivo, read-out: Vdss"}, "[10]": {"experiment": "Clearance in Beagle dog", "type": "ADME, organism-based, Canis lupus familiaris", "details": "in vivo"}, "[11]": {"experiment": "Intrinsic clearance in dog hepatic microsomes", "type": "ADME, Canis lupus familiaris, Liver, Microsome"}, "[12]": {"experiment": "Half life in Beagle dog", "type": "ADME, organism-based, Canis lupus familiaris", "details": "in vivo"}, "[13]": {"experiment": "Volume of distribution at steady state in Beagle dog", "type": "ADME, organism-based, Canis lupus familiaris", "details": "in vivo, read-out: Vdss"}, "[14]": {"experiment": "Half life in Wistar rat", "type": "ADME, organism-based", "details": "in vivo"}},
  "data": [
    {"smiles": "CCc1cccc2c(-c3nsc(CN4CCCC4)n3)cn(CC3CCCCC3)c12.Cl", "values": [
      {"measurement": "half-life", "setting": "[1]", "result": 1.2, "unit": "h"},
      {"measurement": "Vd", "setting": "[2]", "result": 1.4, "unit": "L/kg"},
      {"measurement": "clearance", "setting": "[3]", "result": 28, "unit": "mL/min/kg"},
      {"measurement": "Kp", "setting": "[4]", "result": 0.05}
    ]},
    {"smiles": "COCCN(C)Cc1csc(-c2cn(CC3CCCCC3)c3c(Cl)cccc23)n1", "values": [
      {"measurement": "microsomal CLint", "setting": "[5]", "result": 22, "unit": "µL/min/mg"},
      {"measurement": "microsomal CLint", "setting": "[6]", "result": 36, "unit": "µL/min/mg"}
    ]},
    {"smiles": "CN(CCO)Cc1csc(-c2cn(CC3CCOCC3)c3c(Cl)cccc23)n1", "values": [
      {"measurement": "microsomal CLint", "setting": "[5]", "result": 167, "unit": "µL/min/mg"},
      {"measurement": "microsomal CLint", "setting": "[6]", "result": "< 16", "unit": "µL/min/mg"}
    ]},
    {"smiles": "CC(C)N(CCO)Cc1csc(-c2cn(CC3CCOCC3)c3c(Cl)cccc23)n1", "values": [
      {"measurement": "clearance", "setting": "[7]", "result": 127, "unit": "mL/min/kg"},
      {"measurement": "microsomal CLint", "setting": "[8]", "result": 176, "unit": "µL/min/mg"},
      {"measurement": "half-life", "setting": "[1]", "result": 1.38, "unit": "h"},
      {"measurement": "Vd", "setting": "[2]", "result": 11.3, "unit": "L/kg"},
      {"measurement": "microsomal CLint", "setting": "[5]", "result": "> 160", "unit": "µL/min/mg"},
      {"measurement": "Vd", "setting": "[9]", "result": 15, "unit": "L/kg"},
      {"measurement": "clearance", "setting": "[3]", "result": 159, "unit": "mL/min/kg"},
      {"measurement": "clearance", "setting": "[10]", "result": 28, "unit": "mL/min/kg"},
      {"measurement": "CL", "setting": "[11]", "result": 0.131, "unit": "mL/min/kg"},
      {"measurement": "half-life", "setting": "[12]", "result": 3, "unit": "h"},
      {"measurement": "Kp", "setting": "[4]", "result": 3.9},
      {"measurement": "Vd", "setting": "[13]", "result": 5, "unit": "L/kg"},
      {"measurement": "half-life", "setting": "[14]", "result": 1.6, "unit": "h"},
      {"measurement": "microsomal CLint", "setting": "[6]", "result": 161, "unit": "µL/min/mg"}
    ]},
    {"smiles": "OC1CCN(Cc2csc(-c3cn(CC4CCOCC4)c4c(Cl)cccc34)n2)CC1", "values": [
      {"measurement": "microsomal CLint", "setting": "[5]", "result": 16, "unit": "µL/min/mg"},
      {"measurement": "microsomal CLint", "setting": "[6]", "result": 12, "unit": "µL/min/mg"}
    ]},
    {"smiles": "COC1CCN(Cc2csc(-c3cn(CC4CCOCC4)c4c(Cl)cccc34)n2)CC1", "values": [
      {"measurement": "microsomal CLint", "setting": "[5]", "result": "> 270", "unit": "µL/min/mg"},
      {"measurement": "microsomal CLint", "setting": "[6]", "result": 80.4, "unit": "µL/min/mg"}
    ]},
    {"smiles": "Clc1cccc2c(-c3nc(CN4CCOCC4)cs3)cn(CC3CCOCC3)c12", "values": [
      {"measurement": "microsomal CLint", "setting": "[5]", "result": "> 270", "unit": "µL/min/mg"},
      {"measurement": "microsomal CLint", "setting": "[6]", "result": 97.9, "unit": "µL/min/mg"}
    ]},
    {"smiles": "OCCN(CCO)Cc1csc(-c2cn(CC3CCOCC3)c3c(Cl)cccc23)n1", "values": [
      {"measurement": "microsomal CLint", "setting": "[5]", "result": "> 270", "unit": "µL/min/mg"},
      {"measurement": "microsomal CLint", "setting": "[6]", "result": 111, "unit": "µL/min/mg"}
    ]},
    {"smiles": "CCc1sc(-c2cn(CC3CCOCC3)c3c(Cl)cccc23)nc1CN(CC)CCO", "values": [
      {"measurement": "microsomal CLint", "setting": "[5]", "result": "> 270", "unit": "µL/min/mg"},
      {"measurement": "microsomal CLint", "setting": "[6]", "result": 114, "unit": "µL/min/mg"}
    ]}
  ]
}
